Measured values: patent US20130137757A1 (priority 2010, published 2013)

Key:
[1] = tested on: influenza viruses A/Memphis/1/71 (H3N2 type) strain; assay: hemagglutination inhibition test; type: cell-based, influenza virus; conditions: guinea pig red blood cell suspensions, A/Memphis/1/71 (H3N2) strain, in PBS
[2] = tested on: influenza viruses A/PR/8/34 (H1N1 type) strain; assay: hemagglutination inhibition test; type: cell-based, influenza virus; conditions: guinea pig red blood cell suspensions, A/PR/8/34 (H1N1) strain, in PBS

deoxyribonucleic acid [DNA]
hemagglutination (visual and microscopic observation) [1]: strong hemagglutination was observed
hemagglutination (visual and microscopic observation) [2]: strong hemagglutination was observed
